Each structure is given as a SMILES string.

The target of the test is T1, full-length MALT1 protein His-MALT1(1-824) (Homo sapiens, UniProt Q9UDY8).
T1 construct: full-length MALT1 protein His-MALT1(1-824); His (N); made in house; host or cells: baculovirus-infected insect cells
T1 sequence (Q9UDY8 1-824): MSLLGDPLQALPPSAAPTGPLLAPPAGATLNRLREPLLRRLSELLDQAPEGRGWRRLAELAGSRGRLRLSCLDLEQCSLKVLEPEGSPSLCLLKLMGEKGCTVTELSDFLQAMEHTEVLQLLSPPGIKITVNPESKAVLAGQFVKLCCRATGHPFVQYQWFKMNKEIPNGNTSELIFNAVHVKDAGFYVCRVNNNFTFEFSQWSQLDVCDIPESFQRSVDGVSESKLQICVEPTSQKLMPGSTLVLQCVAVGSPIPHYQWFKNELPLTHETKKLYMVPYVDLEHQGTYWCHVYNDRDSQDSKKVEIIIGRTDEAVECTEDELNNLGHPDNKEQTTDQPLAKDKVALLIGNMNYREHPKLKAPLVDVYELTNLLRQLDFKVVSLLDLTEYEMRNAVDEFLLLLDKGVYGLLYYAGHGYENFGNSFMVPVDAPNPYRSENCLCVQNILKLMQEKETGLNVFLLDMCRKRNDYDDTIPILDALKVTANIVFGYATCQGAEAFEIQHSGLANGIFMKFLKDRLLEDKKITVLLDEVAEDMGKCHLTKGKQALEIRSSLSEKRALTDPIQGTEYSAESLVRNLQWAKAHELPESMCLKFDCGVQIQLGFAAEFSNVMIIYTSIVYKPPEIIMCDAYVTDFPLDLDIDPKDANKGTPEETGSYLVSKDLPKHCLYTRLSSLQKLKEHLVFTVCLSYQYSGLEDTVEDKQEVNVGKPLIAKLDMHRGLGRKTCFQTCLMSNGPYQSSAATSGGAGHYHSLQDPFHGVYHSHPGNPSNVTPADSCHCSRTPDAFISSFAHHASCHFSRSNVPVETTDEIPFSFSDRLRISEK
As to the kind of experiment: MALT1 protease assay (Ac-LRSR-AMC tetrapeptide substrate, fluorescence). Type of test: biochemical. Conditions: 1 nM MALT1, 25 μM Ac-LRSR-AMC, 2 h pre-incubation, 8 hr incubation at RT. The method, boiled down: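 Full-length His-MALT1(1-824) from baculovirus-infected insect cells (1 nM) was pre-incubated 2 h at RT with compounds (0.1% DMSO), then 25 μM Ac-LRSR-AMC added in 50 mM Tris pH 7.5, 600 mM sodium citrate, 1 mM DTT, 1 mM EDTA, 0.05% BSA. Fluorescence (ex 355/em 460 nm) read after 8 h at RT; IC50 by non-linear regression of % remaining activity.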
Broadly, the IC50 is the midpoint of a concentration-inhibition curve. Lower therefore signals greater potency in that assay. With `CC1(c2ccn(C(F)F)n2)CC(C(=O)Nc2cnc(-c3ncc(F)cn3)c(Cl)c2)c2cnc3cc(F)nn3c21` (single isomer, unassigned) [Example 115], the IC50 was in the range of 100 to 1000 nM.

With `CC1(c2ccn(C(F)F)n2)CC(C(=O)Nc2cnc(-c3ncc(F)cn3)c(C(F)(F)F)c2)c2cnc3cc(F)nn3c21` (single isomer, unassigned) [Example 117], the IC50 lay within 100 to 1000 nM.

Consider `C[C@]1(c2cnn(C(F)F)c2)C[C@H](C(=O)Nc2cnc(-c3ncncc3F)c(C(F)(F)F)c2)c2cnc3cc(F)nn3c21` (single isomer, unassigned) [Example 118], for which the IC50 fell in the range of 10 to 100 nM.

Take `C[C@@]1(c2cnn(C(F)F)c2)C[C@@H](C(=O)Nc2cnc(-c3ncncc3F)c(C(F)(F)F)c2)c2cnc3cc(F)nn3c21` (single isomer, unassigned) [Example 119]: the IC50 is no less than 1000 nM.

As to `CC(F)(F)n1cc([C@]2(C)C[C@@H](C(=O)Nc3cnc(-n4nccn4)c(Cl)c3)c3cnc4cc(F)nn4c32)cn1` (single isomer, unassigned) [Example 121], the IC50 was no less than 1000 nM.

With `CC(F)(F)n1cc([C@]2(C)C[C@H](C(=O)Nc3cnc(-n4nccn4)c(Cl)c3)c3cnc4cc(F)nn4c32)cn1` (single isomer, unassigned) [Example 122], the IC50 lay within 100 to 1000 nM.

Compound `CC(F)(F)n1cc([C@@]2(C)C[C@@H](C(=O)Nc3cnc(-n4nccn4)c(Cl)c3)c3cnc4cc(F)nn4c32)cn1` (single isomer, unassigned) [Example 123] came in with a half-maximal inhibitory concentration (IC50) of 100 to 1000 nM.

Regarding `C[C@@]1(c2ccn(C(F)F)n2)C[C@@H](C(=O)Nc2cnc(-n3nccn3)c(C(F)(F)F)c2)c2cnc3cc(F)nn3c21` (single isomer, unassigned) [Example 125], the IC50 is no less than 1000 nM.

In turn, `C[C@@]1(c2ccn(C(F)F)n2)C[C@H](C(=O)Nc2cnc(-n3nccn3)c(C(F)(F)F)c2)c2cnc3cc(F)nn3c21` (single isomer, unassigned) [Example 126] returned an IC50 of 10 to 100 nM.

`C[C@]1(c2ccn(C(F)F)n2)C[C@@H](C(=O)Nc2cnc(-n3nccn3)c(C(F)(F)F)c2)c2cnc3cc(F)nn3c21` (single isomer, unassigned) [Example 127] displayed an IC50 of 10 to 100 nM.

As for `CC1(c2cnn(C(F)F)c2)CC(C(=O)Nc2cnc(-c3ncc(F)cn3)c(C(F)(F)F)c2)c2cnc3cc(F)nn3c21` (single isomer, unassigned) [Example 133], the IC50 was in the range of 100 to 1000 nM.

`CC1(c2cnn(C(F)F)c2)CC(C(=O)Nc2cnc(-c3ncc(F)cn3)c(Cl)c2)c2cnc3cc(F)nn3c21` (single isomer, unassigned) [Example 135] displayed an IC50 of 100 to 1000 nM.

Compound `C[C@@]1(c2ccn(C(F)F)n2)C[C@@H](C(=O)Nc2cnc(-c3ncccn3)c(C(F)(F)F)c2)c2cnc3cc(F)nn3c21` (single isomer, unassigned) [Example 137] had a 50% inhibitory concentration (IC50) of no less than 1000 nM.

In turn, `C[C@@]1(c2ccn(C(F)F)n2)C[C@H](C(=O)Nc2cnc(-c3ncccn3)c(C(F)(F)F)c2)c2cnc3cc(F)nn3c21` (single isomer, unassigned) [Example 138] had a 50% inhibitory concentration (IC50) of 100 to 1000 nM.

`C[C@]1(c2ccn(C(F)F)n2)C[C@@H](C(=O)Nc2cnc(-c3ncccn3)c(C(F)(F)F)c2)c2cnc3cc(F)nn3c21` (single isomer, unassigned) [Example 139]: the 50% inhibitory concentration (IC50) fell in the range of 100 to 1000 nM.

In turn, `C[C@@]1(c2ccn(C(F)F)n2)C[C@@H](C(=O)Nc2cnc(-c3ncccn3)c(Cl)c2)c2cnc3cc(F)nn3c21` (single isomer, unassigned) [Example 141] showed an IC50 of no less than 1000 nM.

Take `C[C@@]1(c2ccn(C(F)F)n2)C[C@H](C(=O)Nc2cnc(-c3ncccn3)c(Cl)c2)c2cnc3cc(F)nn3c21` (single isomer, unassigned) [Example 142]: the IC50 was no less than 1000 nM.

Turning to `C[C@]1(c2ccn(C(F)F)n2)C[C@@H](C(=O)Nc2cnc(-c3ncccn3)c(Cl)c2)c2cnc3cc(F)nn3c21` (single isomer, unassigned) [Example 143], the IC50 is no less than 1000 nM.

Regarding `Cn1ccc([C@]2(C)C[C@@H](C(=O)Nc3cnc(-n4nccn4)c(C(F)(F)F)c3)c3cnc4cc(F)nn4c32)n1` (single isomer, unassigned) [Example 145], the half-maximal inhibitory concentration (IC50) was no less than 1000 nM.

In turn, `Cn1ccc([C@]2(C)C[C@H](C(=O)Nc3cnc(-n4nccn4)c(C(F)(F)F)c3)c3cnc4cc(F)nn4c32)n1` (single isomer, unassigned) [Example 146] returned an IC50 of 100 to 1000 nM.

In turn, `Cn1ccc([C@@]2(C)C[C@@H](C(=O)Nc3cnc(-n4nccn4)c(C(F)(F)F)c3)c3cnc4cc(F)nn4c32)n1` (single isomer, unassigned) [Example 147] gave an IC50 of 100 to 1000 nM.

With `C[C@@]1(c2cnn(C(F)F)c2)C[C@@H](C(=O)Nc2cnc(-c3ncccn3)c(C(F)(F)F)c2)c2cnc3cc(F)nn3c21` (single isomer, unassigned) [Example 149], the IC50 was no less than 1000 nM.

`C[C@@]1(c2cnn(C(F)F)c2)C[C@H](C(=O)Nc2cnc(-c3ncccn3)c(C(F)(F)F)c2)c2cnc3cc(F)nn3c21` (single isomer, unassigned) [Example 150] returned an IC50 of 100 to 1000 nM.

Compound `C[C@]1(c2cnn(C(F)F)c2)C[C@@H](C(=O)Nc2cnc(-c3ncccn3)c(C(F)(F)F)c2)c2cnc3cc(F)nn3c21` (single isomer, unassigned) [Example 151] registered an IC50 of 100 to 1000 nM.

Compound `C[C@]1(c2ccn(C3CC3)n2)C[C@H](C(=O)Nc2cnc(-n3nccn3)c(Cl)c2)c2cnc3cc(F)nn3c21` (single isomer, unassigned) [Example 152] returned an IC50 of less than 10 nM.

`C[C@@]1(c2ccn(C3CC3)n2)C[C@@H](C(=O)Nc2cnc(-n3nccn3)c(Cl)c2)c2cnc3cc(F)nn3c21` (single isomer, unassigned) [Example 153] came in with an IC50 of no less than 1000 nM.

On to `C[C@@]1(c2ccn(C3CC3)n2)C[C@H](C(=O)Nc2cnc(-n3nccn3)c(Cl)c2)c2cnc3cc(F)nn3c21` (single isomer, unassigned) [Example 154], for which the half-maximal inhibitory concentration (IC50) is 100 to 1000 nM.

Turning to `C[C@]1(c2ccn(C3CC3)n2)C[C@@H](C(=O)Nc2cnc(-n3nccn3)c(Cl)c2)c2cnc3cc(F)nn3c21` (single isomer, unassigned) [Example 155], the IC50 is no less than 1000 nM.

As to `C[C@]1(c2cnn(C(F)F)c2)C[C@H](C(=O)Nc2cnc(-c3ncncc3F)c(Cl)c2)c2cnc3cc(F)nn3c21` (single isomer, unassigned) [Example 156], the IC50 lay within 10 to 100 nM.

For `C[C@@]1(c2cnn(C(F)F)c2)C[C@@H](C(=O)Nc2cnc(-c3ncncc3F)c(Cl)c2)c2cnc3cc(F)nn3c21` (single isomer, unassigned) [Example 157], the IC50 is no less than 1000 nM.

The compound `CC1(n2ccc([C@@]3(C)C[C@H](C(=O)Nc4cnc(-c5ncccn5)c(C(F)(F)F)c4)c4cnc5cc(F)nn5c43)n2)CC1` (single isomer, unassigned) [Example 158] gave a 50% inhibitory concentration (IC50) of 10 to 100 nM.

Regarding `CC1(n2ccc([C@]3(C)C[C@@H](C(=O)Nc4cnc(-c5ncccn5)c(C(F)(F)F)c4)c4cnc5cc(F)nn5c43)n2)CC1` (single isomer, unassigned) [Example 159], the 50% inhibitory concentration (IC50) is no less than 1000 nM.

In the case of `CC1(n2ccc([C@]3(C)C[C@H](C(=O)Nc4cnc(-c5ncccn5)c(C(F)(F)F)c4)c4cnc5cc(F)nn5c43)n2)CC1` (single isomer, unassigned) [Example 160], the concentration for half-maximal inhibition (IC50) lay within 100 to 1000 nM.

For `CC1(n2ccc([C@@]3(C)C[C@@H](C(=O)Nc4cnc(-c5ncccn5)c(C(F)(F)F)c4)c4cnc5cc(F)nn5c43)n2)CC1` (single isomer, unassigned) [Example 161], the IC50 is no less than 1000 nM.

The compound `CC1(c2ccn(C(F)F)n2)CC(C(=O)Nc2cnc(-c3cccnn3)c(C(F)(F)F)c2)c2cnc3cc(F)nn3c21` (single isomer, unassigned) [Example 162] displayed an IC50 of 10 to 100 nM.

`CC1(c2ccn(C(F)F)n2)CC(C(=O)Nc2cnc(-c3cccnn3)c(C(F)(F)F)c2)c2cnc3cc(F)nn3c21` (single isomer, unassigned) [Example 163]: the IC50 is no less than 1000 nM.

For the compound `CC(F)(F)n1ccc([C@@]2(C)C[C@H](C(=O)Nc3cnc(-c4ncccn4)c(C(F)(F)F)c3)c3cnc4cc(F)nn4c32)n1` (single isomer, unassigned) [Example 164, (trans)-8-(1-(1,1-difluoroethyl)-1H-pyrazol-3-yl)-2-fluoro-8-methyl-N-(6-(pyrimidin-2-yl)-5-(trifluoromethyl)pyridin-3-yl)-7,8-dihydro-6H-cyclopenta[e]pyrazolo[1,5-a]pyrimidine-6-carboxamide], the IC50 is less than 10 nM.

The values above are taken from patent US20260049085A1, “CYCLIC COMPOUNDS AND METHODS OF USING SAME” (SCHRÖDINGER, INC., priority 2022, published 2026).
